# Measurements: ChEMBL document CHEMBL4673389 (ACS Med Chem Lett, 2021)
# Active and inactive are the calls of the source. The rule behind the calls is not given here.
# Molecular target: T1, Protein cereblon (Homo sapiens, UniProt Q96SW2)
# Assay: Competitive binding affinity to human CRBN-thalidomide binding domain expressed in Escherichia coli by FRET assay
row,Compound,Ki [µM]
1,C[S+](C)[O-] [DIMETHYL SULFOXIDE],137

# Molecular target: T1, Protein cereblon
# Assay: Binding affinity to human CRBN-thalidomide binding domain expressed in Escherichia coli by measuring baseline corrected normalized fluorescence by MST based assay
Compound,IC50 [µM],Ki [µM],Activity
O=c1ccn([C@@H]2O[C@H](COP(=O)(O)O)[C@@H](O)[C@H]2O)c(=O)[nH]1,> 5000,,
O=C1CNCN1,> 5000,,
NN1CC(=O)NC1=O,447,229,
CN1CC(=O)NC1=O,137,67.8,
Nn1ccc(=O)[nH]c1=O,84.8,40.7,
O=C1CN(/N=C/c2ccc([N+](=O)[O-])o2)C(=O)N1,,,inactive
O=C1CN(/N=C/c2ccccc2)C(=O)N1,,,inactive
O=C1CN(/N=C/c2ccccc2[N+](=O)[O-])C(=O)N1,,,inactive
O=C1CN(/N=C/c2ncc(-c3ccc(Br)cc3)o2)C(=O)N1,,,inactive
COc1c(-c2ccc3cc(NS(C)(=O)=O)ccc3c2)cc(-n2ccc(=O)[nH]c2=O)cc1C(C)(C)C [DASABUVIR],15.6,4.71,
O=C1CN(/N=C/C=C/c2ccc([N+](=O)[O-])o2)C(=O)N1 [FURAZIDIN],> 1000,,
O=C1CNC(=O)N1 [HYDANTOIN],421,216,
COc1ccc(C2CNC(=O)C2)cc1OC1CCCC1 (stereo unspecified) [ROLIPRAM],202,102,
CC(C)OC(=O)[C@H](C)N[P@](=O)(OC[C@H]1O[C@@H](n2ccc(=O)[nH]c2=O)[C@](C)(F)[C@@H]1O)Oc1ccccc1 [SOFOSBUVIR],> 1000,,
O=C1CCC(=O)N1 [SUCCINIMIDE],22.3,8.19,
O=C1CNC(=S)N1 [THIOHYDANTOIN],332,169,
O=c1cc[nH]c(=O)[nH]1 [URACIL],415,212,
O=c1ccn([C@@H]2O[C@H](CO)[C@@H](O)[C@H]2O)c(=O)[nH]1 [URIDINE],757,390,

# Molecular target: T2, Cereblon isoform 4 (Magnetospirillum gryphiswaldense, UniProt A4TVL0)
# T2 sequence (A4TVL0 whole entry): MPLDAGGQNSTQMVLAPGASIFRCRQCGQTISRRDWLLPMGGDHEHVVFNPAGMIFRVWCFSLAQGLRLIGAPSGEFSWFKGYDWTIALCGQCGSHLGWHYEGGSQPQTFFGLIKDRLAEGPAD
# Assay: Binding affinity to Magnetospirillum gryphiswaldense cereblon isoform 4 by measuring baseline corrected normalized fluorescence by MST based assay
Compound,IC50 [µM],Ki [µM]
O=C1CCC(=O)N1 [SUCCINIMIDE],3.53,0.642
